# In US20260256792A1, “TREATMENT OF CHRONIC SPONTANEOUS URTICARIA BY ADMINISTERING (R)-2-[3-[4-AMINO-3-(2-FLUORO-4-PHENOXY-PHENYL)PYRAZOLO[3,4-D]PYRIMIDIN-1-YL]PIPERIDINE-1-CARBONYL]-4-METHYL-4-[4-(OXETAN-3-YL)PIPERAZIN-1-YL]PENT-2-ENENITRILE” (priority 2023, published 2026):
# Tests used:
# [1] = test system: other TEC family members; settings: cited from earlier work
# [2] = test system: IgG anti-TPO; assay: Phase 2 CSU study: serum IgG anti-TPO ELISA; type: in vivo, human; settings: for IgG anti-TPO (IU) Median Percent Change from Baseline: Baseline to Week 12
# From the text: (§1) Blood samples were also collected through Week 12 to evaluate the change in baseline in various biomarkers, including sMRGPRX2, IgG anti-TPO, IgG anti-FCεRI, IgG anti-IgE, and IL-31.
# (§2) Collection of biological samples for other biomarker research was also part of this study. The following samples for biomarker research were required and were to be collected from all participants in this study: • Serum and plasma samples for soluble biomarkers and cellular tests. Analytes included IgG anti-IgE, IgG anti-FcεRI, IgG anti-TPO, IgE anti-TPO, IL-31, and sMRGPRX2. • Blood samples for immune cell phenotyping, including measurement of eosinophil levels • Blood samples for BTK occupancy in peripheral blood mononuclear cells (PBMCs) at selected sites
# (§3) For each patient, serum samples were to be collected on each of four visits (Visits 2, 4, 6, and end of study/follow up).
# Serum analyte testing was to be performed using the following commercial assays: • sMRGPRX2 ELISA (Cat. No. #MBS933336; MyBioSource) • IL-31 HTRF assay (Cat. No. #62HIL31PEG; Cisbio/PerkinElmer) • IgG anti-TPO ELISA (Cat. No. #ORG503; Orgentec Diagnostica GmbH)
# (§4) If dilutions were to be prepared, the same dilutions were to be prepared twice from each sample. These were to be measured on different plates. Each plate was to include a standard curve. Samples were to be measured twice for all biomarkers except for sMRGPRX2. Mean measurement values were to be calculated, and the concentration of the biomarker was to be calculated using GraphPad Prism 9 software (4-PL model).
# The IgG anti-TPO ELISA was performed according to the manufacturer's instructions.
# (§5) Assay data ranges are described below. • sMRGPRX2: 0.1 ng/mL-10 ng/mL • IgG anti-FCεRI: 0-10000 arbitrary units (AU) • IgG anti-TPO: 0-3000 international units (IU) • IgE anti-TPO: 0-500 AU • IgG anti-IgE: 0-100000 AU • IL-31: 0.1 ng/mL-20 ng/mL
# [3] = test system: CYP3A; settings: cited from earlier work
# [4] = test system: IgG anti-FcεRI; assay: Phase 2 CSU study: serum IgG anti-FcεRI ELISA; type: in vivo, human; settings: for IgG anti-FcεRI (arbitrary unit) Median Percent Change from Baseline: Baseline to Week 12
# From the text: as §1, §2, §3, §4
# For the IgG anti-FcεRI ELISA, MaxiSorp plates were coated overnight with […] recombinant human FcεRIα and blocked with 10% protein-free blocking buffer diluted in assay buffer. Following the addition of serum samples (1:100 in assay buffer) or the hIgG anti-FcεRI standard (1:2 serial dilution in assay buffer), the plates were incubated at room temperature. Next, the anti-IgG-HRP detection antibody was added to all samples. Development was performed using ECL-prime solution and chemiluminescent signal intensity was measured on the Victor5 multimode plate reader.
# as §5
# [5] = test system: 251 kinases sharing a common cysteine in their active site; settings: 1 μM; cited from earlier work
# [6] = test system: cardiac repolarization; settings: healthy volunteers (N=51), also supratherapeutic doses; cited from earlier work
smiles,measurement,setting,value
"CC(C)(C=C(C#N)C(=O)N1CCC[C@@H](n2nc(-c3ccc(Oc4ccccc4)cc3F)c3c(N)ncnc32)C1)N1CCN(C2COC2)CC1 [rilzabrutinib, (R)-2-[3-[4-amino-3-(2-fluoro-4-phenoxy-phenyl)pyrazolo[3,4-d]pyrimidin-1-yl]piperidine-1-carbonyl]-4-methyl-4-[4-(oxetan-3-yl)piperazin-1-yl]pent-2-enenitrile]",binding over time,[1],decayed rapidly over time
same,reduction from baseline for IgG anti-TPO,"[2]; 400 mg TID, Week 12",46.7%
same,IgG anti-TPO (IU) Median Percent Change from Baseline,[2]; 400 mg BID,−19.4%
same,IgG anti-TPO (IU) Median Percent Change from Baseline,[2]; 400 mg QPM,−39.9%
same,IgG anti-TPO (IU) Median Percent Change from Baseline,[2]; 400 mg TID,−46.7%
same,CYP3A inhibition,[3],mild inhibitor
same,reduction from baseline for IgG anti-FCFRI,"[4]; 400 mg TID, Week 12",38.7%
same,IgG anti-FcεRI (arbitrary unit) Median Percent Change from Baseline,[4]; 400 mg BID,−39.0%
same,IgG anti-FcεRI (arbitrary unit) Median Percent Change from Baseline,[4]; 400 mg QPM,−20.4%
same,IgG anti-FcεRI (arbitrary unit) Median Percent Change from Baseline,[4]; 400 mg TID,−38.7%
same,number of kinases inhibited (>90% inhibition) of 251 kinases,[5],6
same,effects on cardiac repolarization (ECG parameters incl. corrected QT interval),[6],does not exert clinically relevant effects
